According to patent US11447485B2, “Class of bifunctional compounds with quanternary ammonium salt structure” (Beijing Showby Pharmaceutical Co., Ltd., priority 2016, dated 2022):

Columns and labels:
[1] = biological target: human recombinant M2 receptor (Homo sapiens, UniProt P08172); experiment: biochemical; assay type: binding
[2] = biological target: T1, human recombinant β2 adrenoceptor (Homo sapiens, UniProt P07550); experiment: cell-based; assay type: cell-based; conditions: for EC50: cAMP accumulation
T1 construct: expressed in transfected cells
T1 sequence (P07550 whole entry): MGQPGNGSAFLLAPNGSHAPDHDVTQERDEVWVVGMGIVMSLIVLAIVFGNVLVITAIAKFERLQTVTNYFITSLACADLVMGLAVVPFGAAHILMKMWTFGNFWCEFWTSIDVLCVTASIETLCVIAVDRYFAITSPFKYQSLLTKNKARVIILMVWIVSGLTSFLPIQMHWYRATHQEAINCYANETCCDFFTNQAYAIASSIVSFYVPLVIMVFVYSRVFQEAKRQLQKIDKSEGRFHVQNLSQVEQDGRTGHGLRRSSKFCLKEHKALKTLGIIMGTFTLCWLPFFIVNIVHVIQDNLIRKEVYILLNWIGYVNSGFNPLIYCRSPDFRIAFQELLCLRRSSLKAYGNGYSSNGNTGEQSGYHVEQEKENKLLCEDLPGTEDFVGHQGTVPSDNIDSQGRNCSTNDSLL

[3] = biological target: human recombinant M1 receptor (Homo sapiens, UniProt P11229); experiment: biochemical; assay type: binding; conditions: for M1/M2: Mx/My = Ki(y)/Ki(x)
Chain of human recombinant M1 receptor (P11229 whole entry): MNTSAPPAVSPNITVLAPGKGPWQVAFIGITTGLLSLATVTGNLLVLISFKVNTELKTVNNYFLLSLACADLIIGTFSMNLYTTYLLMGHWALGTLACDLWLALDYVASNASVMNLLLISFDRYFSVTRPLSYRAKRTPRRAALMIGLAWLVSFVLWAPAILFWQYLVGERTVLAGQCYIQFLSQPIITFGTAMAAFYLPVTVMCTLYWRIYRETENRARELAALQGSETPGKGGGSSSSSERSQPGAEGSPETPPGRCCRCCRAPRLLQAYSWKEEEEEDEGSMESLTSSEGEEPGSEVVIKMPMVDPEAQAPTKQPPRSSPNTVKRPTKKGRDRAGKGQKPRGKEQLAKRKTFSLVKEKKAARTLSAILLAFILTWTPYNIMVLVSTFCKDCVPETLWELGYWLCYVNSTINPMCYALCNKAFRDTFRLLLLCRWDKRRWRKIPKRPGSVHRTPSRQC

[4] = biological target: T2, human recombinant β1 adrenoceptor (Homo sapiens, UniProt P08588); experiment: cAMP accumulation, human recombinant β1 adrenoceptor; assay type: cell-based
T2 construct: expressed in transfected cells
T2 sequence (P08588 whole entry): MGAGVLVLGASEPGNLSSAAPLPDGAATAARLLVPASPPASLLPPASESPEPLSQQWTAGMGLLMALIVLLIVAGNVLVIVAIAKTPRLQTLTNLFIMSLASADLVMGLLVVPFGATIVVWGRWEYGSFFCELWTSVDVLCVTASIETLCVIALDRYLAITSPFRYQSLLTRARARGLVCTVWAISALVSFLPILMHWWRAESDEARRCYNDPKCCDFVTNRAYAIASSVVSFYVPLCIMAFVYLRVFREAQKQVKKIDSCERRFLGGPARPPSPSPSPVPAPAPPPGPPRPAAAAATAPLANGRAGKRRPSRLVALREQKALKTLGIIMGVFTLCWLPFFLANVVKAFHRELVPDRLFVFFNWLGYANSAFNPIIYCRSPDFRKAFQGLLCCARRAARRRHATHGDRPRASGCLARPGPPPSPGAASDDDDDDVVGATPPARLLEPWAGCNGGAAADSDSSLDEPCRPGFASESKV
Description: In order to measure the activity and selectivity of agonists to human β1 and β2 adrenoceptors, the cAMP accumulation of expressed receptors in each recombinant cell line was measured. cAMP was determined by homology radioimmunoassay, that is, cells were washed with PSB buffer solution and suspended in the buffer solution at room temperature to grow to 30000-40000 cells per well. The test compound was diluted with PSB buffer solution containing 0.1% BSA and tested at 11 gradient concentrations ranging from 100 uM to 0.1 pM. For the analysis of β1-adrenoceptor, 10 nM of ICI118551 was added to block the expression of β2-adrenoceptor in HEK293 cells. After the compound was added to the suspended cells, the scintillation plate was incubated at 37° C. for 10 minutes, the reaction was terminated with ice-cold detection buffer solution, and its radioactivity was measured after storage at 4° C. overnight.
The agonistic activity (pEC50 value) was analyzed by regression using S-type dose response model of software package (GraphPad Software, San Diego, Calif.). Selectivity was calculated from the ratio of measured cAMP of β1 and β2 adrenoceptors, which was expressed as sel. β1/β2=(EC50 (β1)/EC50 (β2)).

[5] = biological target: human recombinant M3 receptor (Homo sapiens, UniProt P20309); experiment: biochemical; assay type: binding; conditions: for M1/M3 / M2/M3: Mx/My = Ki(y)/Ki(x)
Chain of human recombinant M3 receptor (P20309 whole entry): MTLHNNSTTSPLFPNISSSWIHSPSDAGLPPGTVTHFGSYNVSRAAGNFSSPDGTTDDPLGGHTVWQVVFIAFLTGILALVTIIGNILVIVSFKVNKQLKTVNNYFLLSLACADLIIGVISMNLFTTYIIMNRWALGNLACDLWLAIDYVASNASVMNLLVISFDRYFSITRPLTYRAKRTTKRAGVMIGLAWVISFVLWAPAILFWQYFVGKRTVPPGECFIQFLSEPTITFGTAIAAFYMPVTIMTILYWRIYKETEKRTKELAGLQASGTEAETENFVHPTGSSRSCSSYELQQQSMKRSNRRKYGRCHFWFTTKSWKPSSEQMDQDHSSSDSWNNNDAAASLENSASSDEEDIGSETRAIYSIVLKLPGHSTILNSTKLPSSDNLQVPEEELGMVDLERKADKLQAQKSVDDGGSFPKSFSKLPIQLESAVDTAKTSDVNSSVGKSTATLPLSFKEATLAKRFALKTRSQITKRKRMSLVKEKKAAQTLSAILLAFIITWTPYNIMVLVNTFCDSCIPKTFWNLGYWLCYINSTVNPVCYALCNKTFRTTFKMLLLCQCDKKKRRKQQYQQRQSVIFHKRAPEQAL

[6] = test system: tracheal smooth muscle of guinea pig; experiment: Relaxation of CCh-induced constriction of isolated guinea pig tracheal smooth muscle (Experimental Example 1); conditions: in vitro; for Onset time (min) ± SD / Time for eliminating inhibition effect (min): CCh 3 × 10^−6 mol/L; for EC50: Cavia porcellus, constriction induced by CCh 3 × 10^−6 mol/L, read-out: EC50 (μM) ± SD
[7] = test system: guinea pig tracheal smooth muscle (MABA); experiment: MABA activity: relaxation of CCh pre-constricted guinea pig isolated trachea; conditions: Cavia porcellus; CCh 3×10^−6 mol/L
Description: (1) The Constriction Effect of Tracheal Smooth Muscle of Guinea Pig Induced by the Example Compounds Antagonizing Carbachol (CCh)
(§1) Preparation of an isolated tracheal smooth muscle specimen of a guinea pig: same as Experiment Example 1.
Administration Method: After the trachea flake were stabilized, carbachol with a final concentration of 3×10^−6 mol/L was added, and administration was started when the pressure value of the trachea flake was increased to a stable platform. The experiments were divided into blank group and each test sample administration group. DMSO solution prepared from K—H solution and 50 μl of each test sample solution were added to each group respectively. The test sample administration group was added with 10^−9, 0.3×10^−8, 10^−8, 0.3×10^−7, 10^−7, 0.3×10^−6 and 10^−6 mol/L of test compound and control substance at cumulative concentration. The blank group was added with corresponding diluted DMSO solution. Medlab was used to record the relaxation degree of smooth muscle of the trachea flake. Finally, isoproterenol with a final concentration of 10^−5 mol/L was added as 100% relaxation.

[8] = test system: heart rate of Beagle dogs; experiment: Heart rate changes after iv administration in Beagle dogs; assay type: in vivo, Beagle dog
Description: Beagle dogs were randomly divided into two groups, half male and half female, and were intravenously injected (iv) with 7.5% ethanol solution of compounds of the invention and control compound. Each compound was set up in two dosage groups of 0.01 mg/kg and 0.10 mg/kg.

[9] = Liver microsome metabolic stability in vitro (SD rat); conditions: SD rat liver microsomes
Description: (§2) The area ratio of the 0 min sample was taken as 100%, and the remaining percentage of the compound after incubation at different times was obtained at each time point by comparison with the sample. With the natural logarithm of this percentage on the ordinate and time on the abscissa, a scatter plot was drawn to simulate a straight line with a negative slope of k. The parameters were calculated according to the formula.
(§3) Liver weight indicates the liver weight (g) per kilogram of body weight, and P450 indicates the amount (mg) of P450 enzyme per gram of liver.

[10] = Lung homogenate stability in vitro (human); assay type: in vitro ADME; conditions: 8 h, 37° C.
[11] = test system: M receptor of guinea pig tracheal smooth muscle; experiment: MA activity: guinea pig isolated trachea, propranolol blocks β receptor, CCh constriction; conditions: Cavia porcellus; propranolol 10^−5 mol/L, CCh 3×10^−6 mol/L
Description: (2) Blocking Effect of Example Compounds on M Receptor of Guinea Pig Tracheal Smooth Muscle
as §1
Administration method: After trachea flake was stabilized, propranolol hydrochloride solution with a final concentration of 10^−5 mol/L was added to block β receptor for 10 min, carbachol with a final concentration of 3×10^−6 mol/L was added (observing M receptor antagonism of compound after propranolol blocks β receptor), and administration was started when the pressure value of the trachea flake was increased to a stable platform. The experiments were divided into a blank group, a propranolol+blank group, each test sample administration group and a propranolol+each test sample administration group. DMSO solution prepared by K—H solution and 50 μl of test sample solution were added to each group of the blank group and each test sample administration group respectively. The propranolol+blank group and propranolol+each test sample administration group were added with 50 μl propranolol solution for 10 min respectively, and then added with DMSO solution prepared from K—H solution and 50 μl of test sample solution. The test sample administration group was added with the compounds to be tested with final concentrations of 10^−9, 0.3×10^−8, 10^−8, 0.3×10^−7, 10^−7, 0.3×10^−6 and 10^−6 mol/L at cumulative concentration, and the blank group was added with corresponding diluted DMSO solution. The propranolol+each test sample administration group was added with propranolol for 10 min, and then added with the compounds to be tested with final concentrations of 10^−9, 0.3×10^−8, 10^−8, 0.3×10^−7, 10^−7, 0.3×10^−6 and 10^−6 mol/L at cumulative concentration. After the propranolol+blank group was added with propranolol for 10 min, corresponding diluted DMSO solution was added. Medlab was used to record the relaxation degree of tracheal smooth muscle, finally sodium nitroprusside with a final concentration of […] was added as 100% relaxation.

[12] = Lung homogenate stability in vitro (dog); assay type: in vitro ADME, Beagle dog; conditions: 8 h, 37° C.
Description: The compounds of the invention were respectively incubated with the lung homogenate of Beagle dogs for 8 hours in a water bath at 37° C., and sample was analysed by LC-MS/MS when the reaction was terminated.

[13] = Liver microsome metabolic stability in vitro (Beagle dog); conditions: Beagle dog liver microsomes
Description: as §2, §3

[14] = test system: β2 receptor in guinea pig tracheal smooth muscle; experiment: BA activity: guinea pig isolated trachea pre-treated with histamine; conditions: Cavia porcellus, read-out: BA (EC50, nM)
Description: (3) The Antagonism of the Example Compounds on β2 Receptor in Guinea Pig Tracheal Smooth Muscle
as §1
Administration Method: After the trachea flake was stabilized, histamine solution with a final concentration of 3×10^−5 mol/L was added for 10 min, carbachol with a final concentration of 3×10^−6 mol/L was added (observing β receptor antagonism), and administration was started when the pressure value of the trachea flake was increased to a stable platform. The experiments were divided into a blank group, a histamine+blank group, each test sample administration group and a histamine+each test sample administration group. DMSO solution prepared by K—H solution and 50 μl of test sample solution were added to each group of the blank group and each test sample administration group respectively. The histamine+blank group and histamine+each test sample administration group were added with 50 μl histamine solution for 10 min respectively, then added with DMSO solution prepared by K—H solution and 50 μl test sample solution. The test sample administration group was added with the compounds to be tested with final concentrations of 10^−9, 0.3×10^−8, 10^−8, 0.3×10^−7, 10^−7, 0.3×10^−6 and 10^−6 mol/L at cumulative concentration, and the blank group was added with corresponding diluted DMSO solution. The histamine+each test sample administration group was added with histamine for 10 min, and then added with the test compounds with final concentrations of 10^−9, 0.3×10^−8, 10^−8, 0.3×10^−7, 10^−7, 0.3×10^−6 and 10^−6 mol/L at cumulative concentration. After the histamine+blank group was added with histamine for 10 m, corresponding diluted DMSO solution was added. Medlab was used to record the relaxation degree of smooth muscle of the trachea flake. Finally theophylline with a final concentration of 2×10^−4 mol/L was added as 100% relaxation.

[15] = Liver microsome metabolic stability in vitro (human); conditions: Human liver microsomes
Description: as §2, §3

Chain of human recombinant M2 receptor (P08172 whole entry): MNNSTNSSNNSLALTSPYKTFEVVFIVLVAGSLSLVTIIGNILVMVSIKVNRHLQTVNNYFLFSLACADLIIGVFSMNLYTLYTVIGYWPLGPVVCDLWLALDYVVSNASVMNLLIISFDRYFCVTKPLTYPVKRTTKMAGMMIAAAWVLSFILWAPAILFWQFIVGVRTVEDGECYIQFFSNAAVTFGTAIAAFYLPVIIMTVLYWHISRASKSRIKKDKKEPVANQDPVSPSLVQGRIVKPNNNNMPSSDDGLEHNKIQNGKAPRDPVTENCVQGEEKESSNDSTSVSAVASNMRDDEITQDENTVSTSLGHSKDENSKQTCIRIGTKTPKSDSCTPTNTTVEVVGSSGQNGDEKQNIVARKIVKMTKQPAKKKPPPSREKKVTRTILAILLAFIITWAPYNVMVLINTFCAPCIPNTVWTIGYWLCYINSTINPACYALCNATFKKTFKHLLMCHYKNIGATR

| SMILES | sel (β1/β2) [2] | M1/M2 [3] | M1/M3 [5] | M2/M3 [5] | Onset time (min) ± SD [6] [min] | Time for eliminating inhibition effect (min) [6] | EC50 [7] [nM] | 0.5-4 h area increase under heart rate curve (%) ([8]; 0.01 mg/kg iv) | 0.5-4 h area increase under heart rate curve (%) ([8]; 0.10 mg/kg iv) | liver extraction rate (ERh) [9] | Residual rate after incubation of human lung homogenate (%) [10] [%] | EC50 [11] [nM] | Residual rate after incubation of dog lung homogenate (%) [12] [%] | liver extraction rate (ERh) [13] | EC50 [14] [nM] | liver extraction rate (ERh) [15] | also measured |
| --- | --- | --- | --- | --- | --- | --- | --- | --- | --- | --- | --- | --- | --- | --- | --- | --- | --- |
| OCc1cc([C@@H](O)CNCCC[N+]23CCC(CC2)[C@@H](OC[C@@](O)(c2ccccc2)C2CCCC2)C3)ccc1O [Compound 1, (R)-(−)-3-[(R)-2-hydroxy-2-cyclopentyl-2-phenyl]ethoxy-1-{3-[(R)-2-(3-hydroxymethyl-4-hydroxy)phenyl-2-hydroxyethylamino]propyl}-1-azabicyclo[2,2,2]octylonium bromide] | 15.4 | 1.3206 | 0.7653 | 0.5795 | 6.82 ± 0.30 | more than 300 min |  |  |  |  |  |  |  |  |  |  | Ki [1]: 0.968 ± 0.15 nM; EC50 [2]: 12.8 ± 4.2 nM; Ki [3]: 0.733 ± 0.32 nM; EC50 [4]: 197 ± 87 nM; Ki [5]: 0.561 ± 0.22 nM; EC50 [6]: 0.767 ± 0.18 µM |
| OCc1cc([C@@H](O)CNCCCC[N+]23CCC(CC2)[C@@H](OC[C@@](O)(c2ccccc2)C2CCCC2)C3)ccc1O [Compound 3, (R)-(−)-3-[(R)-2-hydroxy-2-cyclopentyl-2-phenyl]ethoxy-1-{4-[(R)-2-(3-hydroxymethyl-4-hydroxy)phenyl-2-hydroxyethylamino]butyl}-1-azabicyclo[2,2,2]octylonium bromide] | 15.6 | 1.2229 | 0.5880 | 0.4808 | 5.38 ± 0.68 | more than 300 min |  |  |  |  |  |  |  |  |  |  | Ki [1]: 0.938 ± 0.4 nM; EC50 [2]: 10.3 ± 2.4 nM; Ki [3]: 0.767 ± 0.16 nM; EC50 [4]: 160 ± 72 nM; Ki [5]: 0.451 ± 0.18 nM; EC50 [6]: 0.355 ± 0.1 µM |
| O=CNc1cc([C@@H](O)CNCc2c(Cl)cc(OCCC[N+]34CCC(CC3)[C@@H](OC[C@](O)(c3ccccc3)C3CCCC3)C4)cc2Cl)ccc1O.[Br-] [Compound 59] | 213.4 | 7.0601 | 0.4629 | 0.0656 | 6.53 ± 0.66 | more than 300 min |  |  |  |  |  |  |  |  |  |  |  |
| CC(NC[C@H](O)c1ccc(O)c(NC=O)c1)c1ccc(OCCC[N+]23CCC(CC2)[C@@H](OC[C@@](O)(c2ccccc2)C2CCCC2)C3)cc1.[Br-] (stereo partly shown) [Compound 94] |  |  |  |  |  |  | 19.8 ± 5.4 | −2.8 | 4.6 | 0.94 | 91 | 43.5 ± 4.2 | 96 | 0.94 | 33.5 ± 5.7 | 0.93 |  |
| O=CNc1cc([C@@H](O)CNCCCOc2ccc(OCCC[N+]34CCC(CC3)[C@@H](OC[C@@](O)(c3ccccc3)C3CCCC3)C4)cc2)ccc1O [Compound 113, (R)-(−)-3-[(R)-2-hydroxy-2-cyclopentyl-2-phenyl]ethoxy-1-{3-[4-(3-{(R)-[2-hydroxy-2-(3-formamido-4-hydroxy)phenyl]ethylamino}propoxy)phenoxy]propyl}-1-azabicyclo[2,2,2]octylonium bromide] |  |  |  |  |  |  | 7.2 ± 1.4 | −3.4 | 3.3 | 0.96 | 93 | 15.6 ± 2.6 | 93 | 0.96 | 17.6 ± 1.9 | 0.97 |  |
| OCc1cc([C@@H](O)CNCCCOc2ccc(OCCC[N+]34CCC(CC3)[C@@H](OC[C@@](O)(c3ccccc3)C3CCCC3)C4)cc2)ccc1O.[Br-] [Compound 122] |  |  |  |  |  |  | 15.6 ± 3.6 | 6.6 | 0 | 0.97 | 95 | 56.7 ± 6.6 | 92 | 0.98 | 36.8 ± 4.1 | 0.93 |  |
| O=c1ccc2c([C@@H](O)CNCCCOc3ccc(OCCC[N+]45CCC(CC4)[C@@H](OC[C@@](O)(c4ccccc4)C4CCCC4)C5)cc3)ccc(O)c2[nH]1.[Br-] [Compound 131] |  |  |  |  |  |  | 4 ± 1 | 10 | 2.9 | 0.93 | 90 | 30.2 ± 8.1 | 94 | 0.93 | 9.2 ± 1.6 | 0.99 |  |
